Assay results published in patent US20250295815A1, “PORPHYRIN-HYDROPORPHYRIN COMPOUNDS, COMPOSITIONS COMPRISING THE SAME AND METHODS OF USE THEREOF” (North Carolina State University, priority 2021, published 2025).

Legend:
Type in all cases: physicochemical
[1] = Dyad photophysical properties in toluene, excited at 405 nm; design: ext coeff (abs max B) / brightness (abs max): unit not given here; conditions: for ext coeff (405 nm) / brightness (405 nm): at 405 nm; for ext coeff (405 nm) / FWHM / QY (x405) / abs max B / abs max Qx / abs max Qy / ext coeff (abs max B) / em max: room temperature; for ext coeff (405 nm): in M-1 cm-1 (unit assumed); for FWHM: emission peak; for FWHM / QY (x405) / em max: excited at 405 nm; for QY (x405): fluorescence quantum yield; for brightness (405 nm) / brightness (abs max): molar absorption coefficient x fluorescence quantum yield; for brightness (405 nm): in M⁻¹cm⁻¹; for brightness (abs max): at abs max
Method: (§1) The photophysical properties of samples were tested in toluene at room temperature and excited at 405 nm.

[2] = Brightness of hydroporphyrin monomers vs. porphyrin-hydroporphyrin dyads at 405 nm excitation; conditions: for fold change: brightness of dyad vs. corresponding hydroporphyrin monomer, 405 nm; for FWHM: emission peak narrowness; for QY (x405): fluorescence quantum yield in toluene at room temperature; for ext coeff (405 nm): molar absorption coefficient at 405 nm, in M-1 cm-1 (unit assumed); for brightness (405 nm): product of molar absorption coefficient at 405 nm and fluorescence quantum yield, in M⁻¹cm⁻¹; for brightness (405 nm) / abs max B / em max: toluene, room temperature
Method: Brightness was calculated using an excitation wavelength of 405 nm for a hydroporphyrin monomer having an emission wavelength of approximately 660, 680, 715, or 800 nm and for a fluorescent compound including a porphyrin and a hydroporphyrin structurally similar to the hydroporphyrin monomer. Brightness was calculated as the product of the molar absorption coefficient at 405 nm and the fluorescence quantum yield in toluene at room temperature. Table 3 provides the emission wavelength of the hydroporphyrin monomer and the corresponding dyad, the brightness of the hydroporphyrin monomer excited at 405 nm, the brightness of the dyad excited at 405 nm, and the fold change in brightness of the hydroporphyrin monomer compared to the brightness of the dyad.

[3] = Comparison porphyrin photophysical properties in toluene, excited at 405 nm; conditions: for ext coeff (405 nm) / brightness (405 nm): at 405 nm; for ext coeff (405 nm) / QY (x405) / abs max B / abs max Qx / em max / ext coeff (abs): room temperature; for ext coeff (405 nm) / ext coeff (abs): in M-1 cm-1 (unit assumed); for QY (x405): fluorescence quantum yield; for QY (x405) / em max: excited at 405 nm; for brightness (405 nm) / brightness (abs max): molar absorption coefficient x fluorescence quantum yield; for brightness (405 nm): in M⁻¹cm⁻¹; for brightness (abs max): at abs max
Method: as §1

[4] = Fluorescence emission spectra in toluene (FIG. 5-8); conditions: for Brightness (molar absorption coefficient×fluorescence quantum yield): in M⁻¹cm⁻¹; for residual porphyrin emission in fluorescence spectrum: toluene, room temperature, FIG. 5, FIG. 6
Method: Emission spectra were collected in toluene at room temperature. […] P5-C3 contains a more rigid linker between chlorin and porphyrin than in P3-C1, which results in greater spatial separation of the two components and lower energy transfer.
Brightness (molar absorption coefficient×fluorescence quantum yield): 84,700 (P3-C1), 13,900 (P5-C3).
Emission spectra were collected using 0.5 uM solutions in toluene. Brightness (molar absorption coefficient×fluorescence quantum yield): 19,900 (P11-BC3 meso), 45,100 (P11-BC1 beta).

[5] = FIG. 7, same sample concentration

| Compound | ext coeff (405 nm) [1] | FWHM [1] [nm] | QY (x405) [1] | brightness (405 nm) [1] | brightness (abs max) [1] | abs max B [1] [nm] | abs max Qx [1] [nm] | abs max Qy [1] [nm] | ext coeff (abs max B) [1] | em max [1] [nm] | fold change [2] | FWHM [2] [nm] | QY (x405) [2] | ext coeff (405 nm) [2] | brightness (405 nm) [2] | abs max B [2] [nm] | em max [2] [nm] | other results |
| --- | --- | --- | --- | --- | --- | --- | --- | --- | --- | --- | --- | --- | --- | --- | --- | --- | --- | --- |
| COC(=O)c1c(C#Cc2ccc(-c3c4nc(cc5ccc(cc6nc(cc7ccc3[nH]7)C=C6)[nH]5)C=C4)cc2)c2cc3nc(c(OC)c4[nH]c(cc5nc(cc1[nH]2)CC5(C)C)c(C#Cc1ccc(-c2c5nc(cc6ccc(cc7nc(cc8ccc2[nH]8)C=C7)[nH]6)C=C5)cc1)c4C(=O)OC)CC3(C)C [Dyad P1-BC2] | 325,400 | 31 | 0.19 | 60,845 | 60,845 | 405 | 499 | 795 | 325,400 | 804 | 18.6 | 31 | 0.19 | 325,400 | 60,845 | 405 | 804 |  |
| COC(=O)c1ccc(-c2c3nc(cc4[nH]c(cc5nc(cc6[nH]c2cc6C#Cc2ccc(-c6c7nc(cc8ccc(cc9nc(cc%10ccc6[nH]%10)C=C9)[nH]8)C=C7)cc2)CC5(C)C)cc4C#Cc2ccc(-c4c5nc(cc6ccc(cc7nc(cc8ccc4[nH]8)C=C7)[nH]6)C=C5)cc2)C=C3)cc1 [Dyad P1-C6] | 238,800 | 17 | 0.34 | 80,567 | 81,579 | 406 | 499 | 680 | 241,800 | 682 | 6.4 | 17 | 0.34 | 238,800 | 80,567 | 406 | 682 |  |
| CC1(C)OB(c2ccc(CNC(=O)c3ccc(C4=C5C=CC(=N5)C=c5ccc6[n]5[Zn][n]5c(ccc54)C=C4C=CC(=N4)C=6)cc3)cc2)OC1(C)C [Dyad P2] |  |  |  |  |  |  |  |  |  |  |  |  |  |  |  |  |  | ext coeff (405 nm) [3]: 209,100; QY (x405) [3]: 0.03; brightness (405 nm) [3]: 5,899; brightness (abs max) [3]: 6,466; abs max B [3]: 407 nm; abs max Qx [3]: 533 nm; em max [3]: 623 nm; ext coeff (abs) [3]: 229,200 |
| COC(=O)c1ccc(-c2c3nc(cc4[nH]c(cc5nc(cc6[nH]c2cc6-c2ccc(CNC(=O)c6ccc(-c7c8nc(cc9ccc([nH]9)c(-c9c(C)cc(C)cc9C)c9nc(cc%10ccc7[nH]%10)C=C9)C=C8)cc6)cc2)CC5(C)C)cc4-c2ccccc2)C=C3)cc1 [Dyad P3-C1] | 350,200 | 18 | 0.24 | 84,723 | 106,623 | 410 | 505 | 652 | 440,633 | 656 |  |  |  |  |  |  |  | Brightness (molar absorption coefficient×fluorescence quantum yield) [4, 5]: 84,700; residual porphyrin emission in fluorescence spectrum [4]: no residual emission from the porphyrin |
| Cc1cc(C)c(-c2c3nc(cc4ccc([nH]4)c(-c4ccc(C(=O)NCc5ccc(B6OC(C)(C)C(C)(C)O6)cc5)cc4)c4nc(cc5ccc2[nH]5)C=C4)C=C3)c(C)c1 [Dyad P3] |  |  |  |  |  |  |  |  |  |  |  |  |  |  |  |  |  | ext coeff (405 nm) [3]: 234,100; QY (x405) [3]: 0.04; brightness (405 nm) [3]: 9,628; brightness (abs max) [3]: 12,560; abs max B [3]: 409 nm; abs max Qx [3]: 503 nm; em max [3]: 702 nm; ext coeff (abs) [3]: 305,400 |
| COC(=O)c1ccc(-c2c3nc(cc4ccc(cc5nc(cc6[nH]c2cc6C#Cc2ccc(CNC(=O)c6ccc(-c7c8nc(cc9ccc([nH]9)c(-c9c(C)cc(C)cc9C)c9nc(cc%10ccc7[nH]%10)C=C9)C=C8)cc6)cc2)CC5(C)C)[nH]4)C=C3)cc1 [Dyad P5-C3] | 171,800 |  | 0.08 | 13,934 | 17,413 | 409 | 504 | 657 | 214,700 | 659 |  |  |  |  |  |  |  | Brightness (molar absorption coefficient×fluorescence quantum yield) [4, 5]: 13,900; residual porphyrin emission in fluorescence spectrum [4]: porphyrin emission is apparent |
| COc1c2nc(cc3ccc([nH]3)c(-c3ccc(-c4c5nc(cc6ccc(cc7nc(cc8ccc4[nH]8)C=C7)[nH]6)C=C5)cc3)c3nc(cc4ccc1[nH]4)C(C)(C)C3)C(C)(C)C2 [Dyad P11-BC3] | 118,100 | 15 | 0.17 | 19,871 | 20,998 | 407 | 511 | 714 | 124,800 | 714 | 64.9 | 15 | 0.17 | 118,100 | 19,871 | 407 | 714 | Brightness (molar absorption coefficient×fluorescence quantum yield) ([4]; FIG. 8, 0.5 uM solutions in toluene, meso vs. beta linkage): 19,900 |
| COC(=O)c1ccc(-c2c3nc(cc4[nH]c(cc5nc(cc6[nH]c2cc6-c2ccc(CNC(=O)c6ccc(C7=C8C=CC(=N8)C=c8ccc9[n]8[Zn][n]8c(ccc87)C=C7C=CC(=N7)C=9)cc6)cc2)CC5(C)C)cc4-c2ccccc2)C=C3)cc1 [P2-C1, methyl ester] | 346,400 | 18 | 0.25 | 87,748 | 94,791 | 407 | 533 | 652 | 374,100 | 656 | 2.5 | 18 | 0.25 | 346,400 | 87,748 | 407 | 656 |  |
